Data taken from ChEMBL document CHEMBL4316586, “A comprehensive review of salinomycin derivatives as potent anticancer and anti-CSCs agents” (Eur J Med Chem, 2019).
pIC50: −log10 of the molar value.

Experiments:
Assay type in all cases: functional, cell-based
HCC1937 = assay: Antiproliferative activity against human HCC1937 cells after 72 hrs by MTT assay; conditions: HCC1937, 72 h
JIMT-1 [1] = assay: Antiproliferative activity against human JIMT1 cells after 72 hrs by MTT assay; conditions: JIMT-1, 72 h
HT-29 = assay: Antiproliferative activity against human HT-29 cells after 48 hrs by MTT assay; conditions: HT-29, 48 h
MDA-MB-231 = assay: Antiproliferative activity against human MDA-MB-231 cells after 48 hrs by MTT assay; conditions: MDA-MB-231, 48 h
HGC-27 = assay: Antiproliferative activity against human HGC27 cells after 48 hrs by MTT assay; conditions: HGC-27, 48 h
4T1 = assay: Antiproliferative activity against mouse 4T1 cells by MTT assay
MCF7 = assay: Antiproliferative activity against human MCF7 cells
JIMT-1 [2] = assay: Antiproliferative activity against human JIMT1 cells

pIC50 (MCF7) | Structure (SMILES) | pIC50 (HT-29) | pIC50 (MDA-MB-231) | pIC50 (HGC-27) | pIC50 (JIMT-1 [2]) | further results
 | CC[C@@H](C(=O)[C@@H](C)[C@@H](O)[C@H](C)[C@@H]1O[C@@H]([C@@H](CC)C(=O)O)CC[C@@H]1C)[C@H]1O[C@]2(C=CC[C@]3(CC[C@@](C)([C@H]4CC[C@](O)(CC)[C@H](C)O4)O3)O2)[C@H](C)C[C@@H]1C |  |  |  |  | pIC50 (HCC1937): < 5.00; pIC50 (JIMT-1 [1]): 5.76
 | CC[C@@H](C(=O)[C@@H](C)[C@@H](O)[C@H](C)[C@@H]1O[C@@H]([C@@H](CC)C(=O)O)CC[C@@H]1C)[C@H]1O[C@@]2(C=C[C@@H](O)[C@@]3(CC[C@@](C)([C@H]4CC[C@](O)(CC)[C@H](C)O4)O3)O2)[C@H](C)C[C@@H]1C | 6.12 | 5.24 | 6.21 |  | 
 | CC[C@@H](C(=O)[C@@H](C)[C@@H](O)[C@H](C)[C@@H]1O[C@@H]([C@@H](CC)C(=O)O)CC[C@@H]1C)[C@H]1O[C@]2(C=C[C@H](n3cc(-c4ccc(Br)cc4)nn3)[C@]3(CC[C@@](C)([C@H]4CC[C@](O)(CC)[C@H](C)O4)O3)O2)[C@H](C)C[C@@H]1C |  |  |  |  | pIC50 (4T1): 5.43
 | CC[C@@H](C(=O)[C@@H](C)[C@@H](O)[C@H](C)[C@@H]1O[C@@H]([C@@H](CC)C(=O)O)CC[C@@H]1C)[C@H]1O[C@]2(C=C[C@H](n3cc(-c4ccccc4C(=O)OC)nn3)[C@]3(CC[C@@](C)([C@H]4CC[C@](O)(CC)[C@H](C)O4)O3)O2)[C@H](C)C[C@@H]1C |  |  |  |  | pIC50 (4T1): 5.42
5.51 | CC[C@@H](C(=O)[C@@H](C)[C@@H](O)[C@H](C)[C@@H]1O[C@@H]([C@@H](CC)C(=O)O)CC[C@@H]1C)[C@H]1O[C@]2(CCC(=O)[C@]3(CC[C@@](C)([C@H]4CC[C@](O)(CC)[C@H](C)O4)O3)O2)[C@H](C)C[C@@H]1C |  |  |  | 5.57 | 
4.86 | CC[C@@H]([C@@H](O)[C@@H](C)[C@@H](O)[C@H](C)[C@@H]1O[C@@H]([C@@H](CC)C(=O)O)CC[C@@H]1C)[C@H]1O[C@]2(C=C[C@@H](O)[C@]3(CC[C@@](C)([C@H]4CC[C@](O)(CC)[C@H](C)O4)O3)O2)[C@H](C)C[C@@H]1C |  |  |  | 4.90 | 
 | CC[C@@H](C(=O)[C@@H](C)[C@@H](O)[C@H](C)[C@@H]1O[C@@H]([C@@H](CC)C(=O)O)CC[C@@H]1C)[C@H]1O[C@@]2(C=C[C@@H](OCc3ccccc3)[C@]3(CC[C@@](C)([C@H]4CC[C@](O)(CC)[C@H](C)O4)O3)O2)[C@H](C)C[C@@H]1C | < 5.00 | < 5.00 | < 5.00 |  | 
 | CC[C@@H](C(=O)[C@@H](C)[C@@H](O)[C@H](C)[C@@H]1O[C@@H]([C@@H](CC)C(=O)O)CC[C@@H]1C)[C@H]1O[C@@]2(C=C[C@@H](OCc3ccccc3)[C@@]3(CC[C@@](C)([C@H]4CC[C@](O)(CC)[C@H](C)O4)O3)O2)[C@H](C)C[C@@H]1C | 5.55 | 5.18 | 5.38 |  | 
 | CC[C@@H](C(=O)[C@@H](C)[C@@H](O)[C@H](C)[C@@H]1O[C@@H]([C@@H](CC)C(=O)O)CC[C@@H]1C)[C@H]1O[C@@]2(C=C[C@@H](O)[C@]3(CC[C@@](C)([C@H]4CC[C@](O)(CC)[C@H](C)O4)O3)O2)[C@H](C)C[C@@H]1C | < 5.00 | < 5.00 | < 5.00 |  | 
6.05 | CC[C@@H](C(=O)[C@@H](C)[C@@H](O)[C@H](C)[C@@H]1O[C@@H]([C@@H](CC)C(=O)O)CC[C@@H]1C)[C@H]1O[C@]2(CC[C@@H](O)[C@]3(CC[C@@](C)([C@H]4CC[C@](O)(CC)[C@H](C)O4)O3)O2)[C@H](C)C[C@@H]1C |  |  |  | 6.00 | 
4.90 | CC[C@@H]([C@H](O)[C@@H](C)[C@@H](O)[C@H](C)[C@@H]1O[C@@H]([C@@H](CC)C(=O)O)CC[C@@H]1C)[C@H]1O[C@]2(C=C[C@@H](O)[C@]3(CC[C@@](C)([C@H]4CC[C@](O)(CC)[C@H](C)O4)O3)O2)[C@H](C)C[C@@H]1C |  |  |  | 4.81 | 
